In article PMC7413254 (Nature Communications, 2020):
Read-outs that look alike come from different tables or passages of the source.

Columns and labels:
PfCRT [1] = test: Test of solutes as potential co-substrates for influx of VF-6 via PfCRT into the oocyte; format: cell-based, Plasmodium falciparum; design: key: X: Compounds that have been tested as potential co-substrates but are not required for influx of VF-6 via PfCRT into the oocyte; conditions: X = tested
non-expressing oocytes [2] = format: cell-based, Xenopus laevis; conditions: total [3H]CQ transport; for Uptake of [3H]CQ (% non-expressing oocyte control), trans-stimulation: non-expressing oocytes, normalised to the oocyte type control; for Uptake of [3H]CQ (% PfCRTDd2 control), trans-stimulation, non-expressing oocytes: mean ± SEM, SEM
In short: (§1)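 Oocytes (ten per treatment, ≥4 independent frogs/days) were preloaded by injecting VF-6 in 25 nL ND96 at pH 5.0, 5.5, 6.0 or 7.0, or Na^+-free choline buffer, then uptake run 1.5 h, 27.5 °C, ND96 pH 5.5 by default. Internal concentrations assumed ~400 nL oocyte volume.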

PfCRT^Ecu1110 [3] = target: T1, PfCRT^Ecu1110 (Plasmodium falciparum, UniProt Q9N623, A220S/I356L/K76T/N326D); test: [3H]CQ uptake into Xenopus oocytes, cis-inhibition by unlabelled solute; format: cell-based
In short: (§2)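 Using pH 5.5 ND96 at 27.5 °C, uptake is followed for 1.5 h, stopped with ice-cold buffer, and quantified as accumulated radioactivity per oocyte after SDS lysis.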

PfCRT^Dd2 [4] = target: T2, PfCRT^Dd2 (Plasmodium falciparum, UniProt Q9N623, A220S/I356T/K76T/M74I/N326S/N75E/Q271E/R371I); test: as above; format: cell-based
In short: as §2

PfCRT [5] = test: Potential co-substrates tested for influx of VF-6 via PfCRT into the oocyte; format: cell-based, Plasmodium falciparum; design: key: X: Compounds that have been tested as potential co-substrates but are not required for influx of VF-6 via PfCRT into the oocyte
PfCRT^3D7 [6] = target: T3, PfCRT^3D7 (Plasmodium falciparum, UniProt Q8IBZ9); test: cell-based; format: cell-based; conditions: total [3H]CQ transport; for inhibition at 500 µM: [test solute] = 0.5 mM; for inhibition at 1000 µM: [test solute] = 1 mM; for inhibition at 2000 µM: [test solute] = 2 mM
In short: as §2

PfCRT^Ecu1110 [7] = target: T1, PfCRT^Ecu1110; test: cell-based; format: cell-based; conditions: […]
In short: as §1

PfNT1 = target: T4, PfNT1 (Plasmodium falciparum, UniProt Q8IDM6); test: cell-based; format: cell-based; conditions: for activity at 5000 µM: total [3H]CQ transport
T4 construct: expressed in transfected cells; host or cells: Xenopus laevis oocytes (stage V-VI), cRNA-injected
In short: as §1

PfCRT^3D7 [8] = target: T3, PfCRT^3D7; test: cell-based; format: cell-based
In short: as §1

PfCRT^Dd2 [9] = target: T2, PfCRT^Dd2; test: cell-based; format: cell-based; conditions: […]; for activity at 45000 µM: [test solute]i = 45 mM (30 mM for some solutes due to solubility)
In short: as §1

non-expressing oocytes [10] = test: cells; format: cell-based, Xenopus laevis; conditions: Xenopus laevis, total [3H]CQ transport; for inhibition at 500 µM: [test solute] = 0.5 mM; for inhibition at 1000 µM: [test solute] = 1 mM; for inhibition at 2000 µM: [test solute] = 2 mM
In short: as §2

[11] = read-out: PfCRT-mediated [3H]CQ transport, cis-inhibition (% PfCRTEcu1110 control)
[12] = read-out: Uptake of [3H]CQ (% PfCRTDd2 control), cis-inhibition, PfCRTEcu1110, SEM
[13] = read-out: Uptake of [3H]CQ (% PfCRTEcu1110 control), cis-inhibition
[14] = read-out: [3H]CQ transport (% PfCRTEcu1110 control), cis-inhibition, PfCRTEcu1110, SEM
[15] = read-out: PfCRT-mediated [3H]CQ transport, cis-inhibition (% PfCRTDd2 control)
[16] = read-out: Uptake of [3H]CQ (% PfCRTDd2 control), cis-inhibition
[17] = read-out: Uptake of [3H]CQ (% PfCRTDd2 control), cis-inhibition, PfCRTDd2, SEM
[18] = read-out: [3H]CQ transport (% PfCRTDd2 control), cis-inhibition, PfCRTDd2, SEM
[19] = PfCRT3D7 oocytes, normalised to the oocyte type control, read-out: Uptake of [3H]CQ (% PfCRT3D7 control), cis-inhibition
[20] = mean ± SEM, SEM, read-out: Uptake of [3H]CQ (% PfCRTDd2 control), cis-inhibition, PfCRT3D7
[21] = Oocyte, mean ± SEM, SEM, read-out: Uptake of [3H]CQ (% PfCRTDd2 control), cis-inhibition, non-expressing oocytes
[22] = non-expressing oocytes, normalised to the oocyte type control, read-out: Uptake of [3H]CQ (% non-expressing oocyte control), cis-inhibition

T3 sequence (Q8IBZ9 59-398): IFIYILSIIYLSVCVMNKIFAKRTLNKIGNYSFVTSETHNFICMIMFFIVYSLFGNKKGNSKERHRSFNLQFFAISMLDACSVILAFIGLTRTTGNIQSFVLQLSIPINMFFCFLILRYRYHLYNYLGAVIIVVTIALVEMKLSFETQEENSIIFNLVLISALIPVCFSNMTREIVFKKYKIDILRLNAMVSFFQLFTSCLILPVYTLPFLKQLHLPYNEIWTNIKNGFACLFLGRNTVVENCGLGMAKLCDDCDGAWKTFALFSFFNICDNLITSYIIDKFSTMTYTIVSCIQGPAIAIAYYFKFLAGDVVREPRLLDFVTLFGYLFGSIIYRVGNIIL
T4 sequence (Q8IDM6 whole entry): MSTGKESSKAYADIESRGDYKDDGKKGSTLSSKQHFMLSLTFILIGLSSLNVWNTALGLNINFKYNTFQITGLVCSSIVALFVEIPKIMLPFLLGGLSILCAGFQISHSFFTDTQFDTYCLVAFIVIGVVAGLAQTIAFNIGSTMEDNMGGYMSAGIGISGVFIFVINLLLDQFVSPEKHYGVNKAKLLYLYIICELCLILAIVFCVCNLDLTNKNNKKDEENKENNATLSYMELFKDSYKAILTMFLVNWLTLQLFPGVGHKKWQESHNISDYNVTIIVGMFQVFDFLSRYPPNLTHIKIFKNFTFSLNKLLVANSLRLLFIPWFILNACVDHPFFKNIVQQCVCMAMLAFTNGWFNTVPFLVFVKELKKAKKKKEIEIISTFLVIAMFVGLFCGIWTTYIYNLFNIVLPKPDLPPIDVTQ
T2 sequence (Q9N623 whole entry A220S/I356T/K76T/M74I/N326S/N75E/Q271E/R371I): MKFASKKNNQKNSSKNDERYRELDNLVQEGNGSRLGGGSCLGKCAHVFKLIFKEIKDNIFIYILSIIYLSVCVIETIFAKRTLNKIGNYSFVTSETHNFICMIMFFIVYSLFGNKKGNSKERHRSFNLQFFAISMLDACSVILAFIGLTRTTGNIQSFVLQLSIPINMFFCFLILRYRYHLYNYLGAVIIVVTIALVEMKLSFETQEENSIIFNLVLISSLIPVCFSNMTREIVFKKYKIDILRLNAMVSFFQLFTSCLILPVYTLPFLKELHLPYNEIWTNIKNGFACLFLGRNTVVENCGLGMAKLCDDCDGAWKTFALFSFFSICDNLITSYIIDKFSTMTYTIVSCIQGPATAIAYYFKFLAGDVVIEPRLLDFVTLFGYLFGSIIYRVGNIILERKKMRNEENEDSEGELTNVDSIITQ
T1 sequence (Q9N623 whole entry A220S/I356L/K76T/N326D): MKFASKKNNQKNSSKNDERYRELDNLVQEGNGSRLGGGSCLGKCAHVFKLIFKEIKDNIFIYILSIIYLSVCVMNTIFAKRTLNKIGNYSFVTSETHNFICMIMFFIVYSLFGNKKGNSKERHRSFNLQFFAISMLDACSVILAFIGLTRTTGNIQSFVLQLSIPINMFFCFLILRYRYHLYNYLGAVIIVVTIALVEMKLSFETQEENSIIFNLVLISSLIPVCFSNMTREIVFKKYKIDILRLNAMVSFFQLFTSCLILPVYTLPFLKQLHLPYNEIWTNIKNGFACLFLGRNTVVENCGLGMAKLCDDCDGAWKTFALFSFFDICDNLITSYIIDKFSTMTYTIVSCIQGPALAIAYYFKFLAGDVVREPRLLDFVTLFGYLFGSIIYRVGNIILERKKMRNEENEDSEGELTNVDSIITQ

Compound: N[C@@H](Cc1c[nH]c2ccccc12)C(=O)O [L-tryptophan]
- Tested as potential co-substrate but not required for influx of VF-6 via PfCRT into the oocyte (PfCRT [1]): X
- Uptake of [3H]CQ (% non-expressing oocyte control), trans-stimulation (non-expressing oocytes [2]; [test solute]i = 5 mM): 98 ± 2.5 % non-expressing oocyte control
- Uptake of [3H]CQ (% non-expressing oocyte control), trans-stimulation (non-expressing oocytes [2]; [test solute]i = 45 mM (30 mM for some solutes due to solubility)): 99 ± 2.1 % non-expressing oocyte control
- Uptake of [3H]CQ (% PfCRTDd2 control), trans-stimulation, non-expressing oocytes (non-expressing oocytes [2]; [test solute]i = 5 mM (intracellular)): 3.0 ± 0.04 % PfCRTDd2 control
- Uptake of [3H]CQ (% PfCRTDd2 control), trans-stimulation, non-expressing oocytes (non-expressing oocytes [2]; [test solute]i = 45 mM (intracellular; 30 mM for some solutes due to solubility)): 3.2 ± 0.01 % PfCRTDd2 control
- inhibition at 500 µM (PfCRT^Ecu1110 [3]; [11]): 96 ± 3.7%
- inhibition at 1000 µM (PfCRT^Ecu1110 [3]; [11]): 95 ± 4.6%
- inhibition at 500 µM (PfCRT^Ecu1110 [3]; [12]): 32 ± 1.6%
- inhibition at 1000 µM (PfCRT^Ecu1110 [3]; [12]): 32 ± 0.6%
- inhibition at 2000 µM (PfCRT^Ecu1110 [3]; [12]): 33 ± 1.4%
- inhibition at 500 µM (PfCRT^Ecu1110 [3]; [13]): 98 ± 2.5%
- inhibition at 1000 µM (PfCRT^Ecu1110 [3]; [13]): 97 ± 2.7%
- inhibition at 2000 µM (PfCRT^Ecu1110 [3]; [13]): 101 ± 3.1%
- inhibition at 500 µM (PfCRT^Ecu1110 [3]; [14]): 29 ± 1.3%
- inhibition at 1000 µM (PfCRT^Ecu1110 [3]; [14]): 29 ± 0.3%
- inhibition at 2000 µM (PfCRT^Ecu1110 [3]; [14]): 30 ± 1.4%
- inhibition at 500 µM (PfCRT^Dd2 [4]; [15]): 94 ± 4.6%
- inhibition at 1000 µM (PfCRT^Dd2 [4]; [15]): 95 ± 1.9%
- inhibition at 2000 µM (PfCRT^Dd2 [4]; [15]): 95 ± 1.9%
- inhibition at 1000 µM (PfCRT^Dd2 [4]; [16]): 97 ± 2.6%
- inhibition at 2000 µM (PfCRT^Dd2 [4]; [16]): 97 ± 2.5%
- inhibition at 500 µM (PfCRT^Dd2 [4]; [17]): 96 ± 2.1%
- inhibition at 1000 µM (PfCRT^Dd2 [4]; [17]): 97 ± 2.6%
- inhibition at 2000 µM (PfCRT^Dd2 [4]; [17]): 97 ± 2.5%
- inhibition at 1000 µM (PfCRT^Dd2 [4]; [18]): 95 ± 1.9%
- inhibition at 2000 µM (PfCRT^Dd2 [4]; [18]): 95 ± 1.9%
- Tested as potential co-substrate but not required for influx of VF-6 via PfCRT into the oocyte (PfCRT [5]): X
- inhibition at 500 µM (PfCRT^3D7 [6]; [19]): 100 ± 3.2%
- inhibition at 1000 µM (PfCRT^3D7 [6]; [19]): 99 ± 4.6%
- inhibition at 2000 µM (PfCRT^3D7 [6]; [19]): 100 ± 3.6%
- inhibition at 500 µM (PfCRT^3D7 [6]; [20]): 2.7 ± 0.03%
- inhibition at 1000 µM (PfCRT^3D7 [6]; [20]): 2.5 ± 0.04%
- inhibition at 2000 µM (PfCRT^3D7 [6]; [20]): 2.7 ± 0.04%
- activity at 5000 µM (PfCRT^Ecu1110 [7]; pH 5.5, read-out: PfCRT-mediated [3H]CQ transport, trans-stimulation (% PfCRTEcu1110 control), [test solute]i = 5 mM (intracellular), PfCRTEcu1110 oocytes, normalised to oocyte type control): 97 ± 2.2%
- activity at 5000 µM (PfCRT^Ecu1110 [7]; pH 5.5, read-out: Uptake of [3H]CQ (% PfCRTEcu1110 control), trans-stimulation, PfCRTEcu1110 oocytes, [test solute]i = 5 mM, total [3H]CQ transport, normalised to the oocyte type control): 99 ± 3.1%
- activity at 45000 µM (PfCRT^Ecu1110 [7]; pH 5.5, read-out: Uptake of [3H]CQ (% PfCRTEcu1110 control), trans-stimulation, PfCRTEcu1110 oocytes, [test solute]i = 45 mM (30 mM for some solutes due to solubility), total [3H]CQ transport, normalised to the oocyte type control): 99 ± 3.5%
- activity at 5000 µM (PfCRT^Ecu1110 [7]; read-out: Uptake of [3H]CQ (% PfCRTDd2 control), trans-stimulation, PfCRTEcu1110, total [3H]CQ transport, [test solute]i = 5 mM (intracellular), mean ± SEM, SEM): 35 ± 1.9%
- activity at 45000 µM (PfCRT^Ecu1110 [7]; read-out: Uptake of [3H]CQ (% PfCRTDd2 control), trans-stimulation, PfCRTEcu1110, total [3H]CQ transport, [test solute]i = 45 mM (intracellular; 30 mM for some solutes due to solubility), mean ± SEM, SEM): 35 ± 2.1%
- activity at 5000 µM (PfNT1; PfNT1 oocytes, [test solute]i = 5 mM, normalised to the oocyte type control, read-out: Uptake of [3H]CQ (% PfNT1 control), trans-stimulation): 101 ± 3.9%
- activity at 45000 µM (PfNT1; SEM, read-out: Uptake of [3H]CQ (% PfCRTDd2 control), trans-stimulation, PfNT1): 2.1 ± 0.03%
- activity at 45000 µM (PfNT1; read-out: Uptake of [3H]CQ (% PfNT1 control), trans-stimulation): 98 ± 3.2%
- activity at 5000 µM (PfNT1; [test solute]i = 5 mM (intracellular), mean ± SEM, SEM, read-out: Uptake of [3H]CQ (% PfCRTDd2 control), trans-stimulation, PfNT1): 2.7 ± 0.05%
- activity at 5000 µM (PfCRT^3D7 [8]; PfCRT3D7 oocytes, [test solute]i = 5 mM, total [3H]CQ transport, normalised to the oocyte type control, read-out: Uptake of [3H]CQ (% PfCRT3D7 control), trans-stimulation): 100 ± 3.5%
- [3H]CQ transport (% PfCRT3D7 control), trans-stimulation, PfCRT3D7 (PfCRT^3D7 [8]; SEM): 0.3 ± 0.02 % PfCRT3D7 control
- activity at 5000 µM (PfCRT^3D7 [8]; [test solute]i = 5 mM (intracellular), PfCRT3D7 oocytes, normalised to oocyte type control, read-out: PfCRT-mediated [3H]CQ transport, trans-stimulation (% PfCRT3D7 control)): 98 ± 4.7%
- activity at 45000 µM (PfCRT^3D7 [8]; SEM, read-out: Uptake of [3H]CQ (% PfCRTDd2 control), trans-stimulation, PfCRT3D7): 3.4 ± 0.06%
- activity at 45000 µM (PfCRT^3D7 [8]; read-out: PfCRT-mediated [3H]CQ transport, trans-stimulation (% PfCRT3D7 control)): 99 ± 3.4%
- activity at 45000 µM (PfCRT^3D7 [8]; read-out: Uptake of [3H]CQ (% PfCRT3D7 control), trans-stimulation): 101 ± 2.5%
- activity at 5000 µM (PfCRT^3D7 [8]; total [3H]CQ transport, [test solute]i = 5 mM (intracellular), mean ± SEM, SEM, read-out: Uptake of [3H]CQ (% PfCRTDd2 control), trans-stimulation, PfCRT3D7): 3.3 ± 0.06%
- activity at 5000 µM (PfCRT^Dd2 [9]; pH 5.5, read-out: PfCRT-mediated [3H]CQ transport, trans-stimulation (% PfCRTDd2 control), [test solute]i = 5 mM (intracellular), PfCRTDd2 oocytes, normalised to oocyte type control): 98 ± 1.6%
- activity at 5000 µM (PfCRT^Dd2 [9]; pH 5.5, read-out: Uptake of [3H]CQ (% PfCRTDd2 control), trans-stimulation, PfCRTDd2, total [3H]CQ transport, [test solute]i = 5 mM (intracellular), mean ± SEM, SEM): 100 ± 2.2%
- activity at 5000 µM (PfCRT^Dd2 [9]; pH 5.5, read-out: Uptake of [3H]CQ (% PfCRTDd2 control), trans-stimulation, PfCRTDd2 oocytes, [test solute]i = 5 mM, total [3H]CQ transport, normalised to the oocyte type control): 100 ± 2.2%
- activity at 45000 µM (PfCRT^Dd2 [9]; pH 5.5, read-out: Uptake of [3H]CQ (% PfCRTDd2 control), trans-stimulation, PfCRTDd2 oocytes, total [3H]CQ transport, normalised to the oocyte type control): 101 ± 2.4%
- activity at 5000 µM (PfCRT^Dd2 [9]; pH 5.5, read-out: [3H]CQ transport (% PfCRTDd2 control), trans-stimulation, PfCRTDd2, trans-stimulation, [test solute]i = 5 mM (injected), PfCRT-mediated component (background subtracted), mean ± SEM, SEM): 98 ± 1.6%
- activity at 45000 µM (PfCRT^Dd2 [9]; pH 5.5, read-out: [3H]CQ transport (% PfCRTDd2 control), trans-stimulation, PfCRTDd2, trans-stimulation, PfCRT-mediated component (background subtracted), mean ± SEM, SEM): 99 ± 1.9%
- inhibition at 500 µM (non-expressing oocytes [10]; [21]): 2.1 ± 0.07%
- inhibition at 1000 µM (non-expressing oocytes [10]; [21]): 3.4 ± 0.1%
- inhibition at 2000 µM (non-expressing oocytes [10]; [21]): 3.6 ± 0.09%
- inhibition at 500 µM (non-expressing oocytes [10]; [22]): 97 ± 3.2%
- inhibition at 1000 µM (non-expressing oocytes [10]; [22]): 100 ± 3.6%
- inhibition at 2000 µM (non-expressing oocytes [10]; [22]): 100 ± 6.3%
